Reference: the NIST ThermoML archive (doi:10.1021/acs.jced.7b00866)
± gives the expanded uncertainty stated by the source.

Details: Liquid, Capillary tube (Ostwald / Ubbelohde) method

CCCCCCCCCCCC [dodecane]
Details	viscosity [mPa·s]
298.2 K, 6020 kPa	1.461 ± 0.026
298.2 K, 8050 kPa	1.497 ± 0.032
298.2 K, 10020 kPa	1.533 ± 0.034
303.3 K, 10020 kPa	1.394 ± 0.03
303.4 K, 8050 kPa	1.365 ± 0.03
304.9 K, 6020 kPa	1.348 ± 0.028
313.3 K, 10020 kPa	1.184 ± 0.025
313.4 K, 8000 kPa	1.162 ± 0.025
314.5 K, 5990 kPa	1.135 ± 0.025
323.1 K, 8010 kPa	1.007 ± 0.022
323.4 K, 6050 kPa	0.9748 ± 0.025
323.4 K, 10000 kPa	1.021 ± 0.023
333.3 K, 8030 kPa	0.8787 ± 0.021
333.4 K, 10000 kPa	0.8918 ± 0.022
334.1 K, 6010 kPa	0.8555 ± 0.023
343.2 K, 8070 kPa	0.7787 ± 0.02
343.3 K, 5990 kPa	0.7562 ± 0.02
343.3 K, 10010 kPa	0.79 ± 0.02
353.4 K, 6080 kPa	0.6746 ± 0.021
353.4 K, 9980 kPa	0.703 ± 0.019
353.6 K, 8020 kPa	0.6919 ± 0.02
363.3 K, 10050 kPa	0.6332 ± 0.019
363.7 K, 8020 kPa	0.6209 ± 0.019
364 K, 6040 kPa	0.6028 ± 0.019
373.1 K, 10070 kPa	0.5743 ± 0.019
373.9 K, 8020 kPa	0.5622 ± 0.019
374 K, 6000 kPa	0.5462 ± 0.019
383 K, 6010 kPa	0.5011 ± 0.019
383.2 K, 10000 kPa	0.523 ± 0.019
383.4 K, 8050 kPa	0.5137 ± 0.019
393 K, 10020 kPa	0.4798 ± 0.018
393.1 K, 6080 kPa	0.4584 ± 0.019
393.6 K, 8030 kPa	0.4694 ± 0.018
403 K, 6040 kPa	0.4213 ± 0.018
403.1 K, 10040 kPa	0.4407 ± 0.018
404.1 K, 8020 kPa	0.4304 ± 0.018
412.9 K, 10010 kPa	0.4076 ± 0.018
413.2 K, 6080 kPa	0.3885 ± 0.018
413.7 K, 7990 kPa	0.3987 ± 0.018
423 K, 6080 kPa	0.3581 ± 0.018
423.4 K, 10000 kPa	0.3765 ± 0.018
423.9 K, 8050 kPa	0.3686 ± 0.018
432.9 K, 10020 kPa	0.3504 ± 0.018
433.2 K, 6010 kPa	0.3334 ± 0.018
433.3 K, 8000 kPa	0.3405 ± 0.018
443.2 K, 10050 kPa	0.3257 ± 0.018
443.5 K, 6020 kPa	0.3092 ± 0.018
443.5 K, 8010 kPa	0.3152 ± 0.018
453.3 K, 6020 kPa	0.2855 ± 0.018
453.3 K, 9950 kPa	0.3036 ± 0.018
454 K, 8040 kPa	0.2936 ± 0.018
463.3 K, 10010 kPa	0.2839 ± 0.018
463.4 K, 6040 kPa	0.2664 ± 0.018
464.1 K, 8020 kPa	0.2738 ± 0.018
473.3 K, 10050 kPa	0.2657 ± 0.018
473.4 K, 6040 kPa	0.251 ± 0.018
473.5 K, 8010 kPa	0.2525 ± 0.018
483.4 K, 6050 kPa	0.2305 ± 0.018
483.4 K, 8080 kPa	0.2405 ± 0.018
483.4 K, 10000 kPa	0.2489 ± 0.018
493.2 K, 10050 kPa	0.2338 ± 0.018
493.4 K, 6040 kPa	0.216 ± 0.018
493.4 K, 8010 kPa	0.2247 ± 0.018
502.7 K, 7960 kPa	0.2075 ± 0.018
503.2 K, 10010 kPa	0.2197 ± 0.018
503.4 K, 6080 kPa	0.2005 ± 0.018
513 K, 8040 kPa	0.1945 ± 0.018
513 K, 10000 kPa	0.207 ± 0.018
514.2 K, 6050 kPa	0.186 ± 0.018
523 K, 8000 kPa	0.1822 ± 0.018
523.7 K, 5970 kPa	0.1737 ± 0.018
523.7 K, 10040 kPa	0.1949 ± 0.018
533.3 K, 8040 kPa	0.1736 ± 0.018
533.5 K, 6040 kPa	0.1638 ± 0.018
533.5 K, 10070 kPa	0.1825 ± 0.018
542.9 K, 6010 kPa	0.1526 ± 0.018
542.9 K, 8060 kPa	0.1603 ± 0.018
542.9 K, 9950 kPa	0.1682 ± 0.018
552.9 K, 6070 kPa	0.1419 ± 0.018
552.9 K, 10020 kPa	0.158 ± 0.018
553.2 K, 8010 kPa	0.1506 ± 0.018
563 K, 6050 kPa	0.1337 ± 0.018
563 K, 8020 kPa	0.1414 ± 0.018
563 K, 10020 kPa	0.1509 ± 0.018
573 K, 6010 kPa	0.124 ± 0.018
573 K, 8020 kPa	0.1347 ± 0.018
573 K, 10040 kPa	0.1437 ± 0.018
582.8 K, 6000 kPa	0.1159 ± 0.018
582.8 K, 10010 kPa	0.132 ± 0.018
582.9 K, 7960 kPa	0.1265 ± 0.018
592.9 K, 8070 kPa	0.12 ± 0.018
593 K, 6020 kPa	0.1104 ± 0.018
593 K, 10000 kPa	0.1263 ± 0.018
602.9 K, 8020 kPa	0.1128 ± 0.018
603.1 K, 6010 kPa	0.1048 ± 0.018
603.1 K, 10010 kPa	0.1186 ± 0.018
612.9 K, 8020 kPa	0.1058 ± 0.018
613.1 K, 6040 kPa	0.0969 ± 0.018
613.1 K, 10010 kPa	0.1116 ± 0.018
623 K, 7990 kPa	0.1003 ± 0.018
623.2 K, 6050 kPa	0.0908 ± 0.018
623.2 K, 10050 kPa	0.1056 ± 0.018
632.8 K, 8040 kPa	0.0933 ± 0.018
633.5 K, 6020 kPa	0.0848 ± 0.018
633.5 K, 10010 kPa	0.0992 ± 0.018
643 K, 8050 kPa	0.0878 ± 0.018
643.4 K, 6020 kPa	0.0789 ± 0.018
643.4 K, 10010 kPa	0.0943 ± 0.018
652.9 K, 8020 kPa	0.0824 ± 0.018
653.4 K, 6070 kPa	0.0733 ± 0.018
653.4 K, 10040 kPa	0.087 ± 0.018
663.1 K, 8010 kPa	0.0775 ± 0.018
663.2 K, 6010 kPa	0.0682 ± 0.018
663.2 K, 10050 kPa	0.0823 ± 0.018
672.9 K, 8010 kPa	0.0727 ± 0.018
673.5 K, 6040 kPa	0.0635 ± 0.018
673.5 K, 9980 kPa	0.0785 ± 0.018
683.2 K, 8050 kPa	0.0685 ± 0.018
683.2 K, 10040 kPa	0.0746 ± 0.018
683.3 K, 6010 kPa	0.059 ± 0.018
693.2 K, 6010 kPa	0.0548 ± 0.018
693.2 K, 8020 kPa	0.0643 ± 0.018
693.2 K, 10010 kPa	0.0712 ± 0.018
